US5972598A, “Methods for preventing multidrug resistance in cancer cells” (priority 1995, dated 1999)
“Also recorded” adds a separate entry of the source. Like-named read-outs stand apart in the source and are kept apart here.

Tests used:
[1] = system: MDR1; test: Inhibition of cytotoxic drug (Ara-C) induced MDR1 expression by protein kinase inhibitors; format: cell-based, human; conditions: for inhibition of Ara-C induced MDR1 expression: 5 μM
Description: FIG. 5. Effect of protein kinase inhibitors on MDR1 mRNA induction by cytotoxic drugs in H9 cells. […]
(Commercially-available kits (for example, from GIBCO/BRL, Gaithersburg, Md.) can be advantageously modified for making cDNA using random hexamers.) PCR is then performed using the following primers: […]
(§1) (where β2 M represents β2 microglobulin). PCR was performed for β2 M experiments under a regime consisting of 1 cycle comprising denaturation at 94° C. for 3 minutes, primer annealing at 60° C. for 30 seconds, and primer extension at 72° C. for 1 minute, followed by 19 cycles comprising denaturation at 94° C. for 30 seconds, primer annealing at 60° C. for 30 seconds, and primer extension at 72° C. for 1 minute, followed by a final cycle comprising denaturation at 94° C. for 30 seconds, primer annealing at 60° C. for 30 seconds, and primer extension at 72° C. for 5 minutes. MDR1 cDNA sequences were amplified using the identical protocol as for β2 M, but extending the amplification from 19 cycles to 25 cycles. In addition, the cDNA-PCR amplification protocol contained the following modifications: (i) Taq DNA polymerase was added to the PCR mixtures after initial heating of the samples to 94° C. (ii) The yield of the β2 -microglobulin-specific band, obtained after 22-28 cycles of PCR, was used as the primary criterion for equalizing the starting amounts of the cDNA templates in different preparations, in order to account for differential RNA degradation in cells subjected to different types of treatment. […] PCR products were detected by autoradiography.
Cells were plated in 6-well Falcon tissue culture plates at 3,300 cells per well, and incubated in the appropriate concentrations of drugs. Each of the protein kinase inhibitors to be tested were added at their appropriate final concentrations 45 minutes prior to MDR1 induction by the addition of Ara-C or TPA, with the exception of herbimycin A, which was added 12 hours prior to Ara-C or TPA, and tyrphostins A25 and B46, which were each added 16 hours prior to MDR1 induction by the addition of Ara-C or TPA. Cells were incubated overnight (TPA) or for 10 hours (Ara-C) at 37° C. under an atmosphere of 5% CO2 after the addition of the MDR1 inducing agents before harvesting for cDNA-PCR analysis.
In addition to these conditions, the analysis of certain drugs imposed added requirements. For experiments using calphostin C, cells were incubated under direct white light illumination. For experiments using D,L-threo-sphingosine, the cell culture medium was pre-treated with the appropriate concentration of the drug for one hour at 37° C. with continuous gentle mixing. After this pre-treatment, cells were resuspended in media supplemented with drug and incubated for 45 minutes as described above.
cDNA-PCR analyses on each culture treated with drugs, or in control cultures incubated in the absence or presence of Ara-C or TPA alone, were performed as described in Section 6.1.3 above.
To further evaluate the capacity of protein kinase inhibitors to suppress MDR1 induction by cytotoxic drugs and PKC agonists, H-9 human T cell leukemia cells were used in cDNA-PCR assays to examine induced MDR1 mRNA expression levels in the presence of such protein kinase inhibitors.

[2] = system: H9 cells; test: Cellular toxicity in H9 cells; conditions: concentrations higher than 5 μM
[3] = system: protein kinases; conditions: 10-fold weaker than H7; Pelosin et al., 1990; cited from earlier work
[4] = system: MDR1; format: cell-based, human
Description: (§2) Neomycin sulfate (Calbiochem) was dissolved in sterile, deionized water.
(§3) P-glycoprotein expression on the cell surface was analyzed using a P-glycoprotein-specific mouse IgG2a monoclonal antibody (mAB) UIC2 (Mechetner and Roninson, 1992, Proc. Natl. Acad. Sci. USA 89:5824-5828). Mouse IgG2a isotype control antibody was obtained from Sigma. For staining of PBL with UIC2 mAB or isotype control, 10^6 cells were stained at 4° C. with 10 μg of the antibody for 30 minutes and, after two washes, stained for 30 minutes with 10 μg of FITC-conjugated goat anti-mouse IgG2a antibody (Fisher Scientific, Fairlawn, N.J.), diluted 1:2 with PBS plus 2% FCS. Cells were then washed twice with ice-cold PBS plus 2% FCS, stained with PI and kept on ice until analysis. Essentially the same protocol was used for staining of other cell types except that 2 μg of the secondary antibody were used per 10^6 cells. In some experiments, phycoerythrine (PE)-conjugated goat anti-mouse IgG2a was used as the secondary antibody; no PI was added in such cases. Flow cytometric analysis was conducted on a Coulter Epics 753 Flow Cytometer.
(§4) RNA was extracted from approximately 10^6 cells by a small-scale sodium dodecyl sulfate extraction procedure (Peppel and Baglioni, 1990, BioTechniques 9:711-713). In the alternative, RNA was isolated from cells using the TRIzol method (commercially available from GIBCO/BRL). cDNA synthesis and polymerase chain reaction (PCR) amplification of MDR1 and β2 -microglobulin cDNA sequences were carried out essentially as described (Noonan et al., 1990, Proc. Natl. Acad. Sci. USA 87:7160-7164; Noonan and Roninson, 1991, pp. 319-333 In Roninson (Ed.), Molecular and Cellular Biology of Multidrug Resistance in Tumor Cells, Plenum Press, New York). Briefly, cDNA was prepared using the method of Krug and Berger (1987, Meth. Enzymol. 152: 316-324), with the modification that random hexamers were substituted for oligo(dT) as primers for cDNA synthesis. (Commercially-available kits (for example, from GIBCO/BRL, Gaithersburg, Md.) can be advantageously modified for making cDNA using random hexamers.) PCR is then performed using the following primers: […]
as §1
MDR1 gene expression was evaluated by a functional assay for Rh123

[5] = target: P-glycoprotein (Homo sapiens, UniProt P08183); test: Rh123 accumulation assay of P-glycoprotein activity in human PBL; conditions: human PBL
Chain of P-glycoprotein (Homo sapiens, UniProt P08183) (P08183 whole entry): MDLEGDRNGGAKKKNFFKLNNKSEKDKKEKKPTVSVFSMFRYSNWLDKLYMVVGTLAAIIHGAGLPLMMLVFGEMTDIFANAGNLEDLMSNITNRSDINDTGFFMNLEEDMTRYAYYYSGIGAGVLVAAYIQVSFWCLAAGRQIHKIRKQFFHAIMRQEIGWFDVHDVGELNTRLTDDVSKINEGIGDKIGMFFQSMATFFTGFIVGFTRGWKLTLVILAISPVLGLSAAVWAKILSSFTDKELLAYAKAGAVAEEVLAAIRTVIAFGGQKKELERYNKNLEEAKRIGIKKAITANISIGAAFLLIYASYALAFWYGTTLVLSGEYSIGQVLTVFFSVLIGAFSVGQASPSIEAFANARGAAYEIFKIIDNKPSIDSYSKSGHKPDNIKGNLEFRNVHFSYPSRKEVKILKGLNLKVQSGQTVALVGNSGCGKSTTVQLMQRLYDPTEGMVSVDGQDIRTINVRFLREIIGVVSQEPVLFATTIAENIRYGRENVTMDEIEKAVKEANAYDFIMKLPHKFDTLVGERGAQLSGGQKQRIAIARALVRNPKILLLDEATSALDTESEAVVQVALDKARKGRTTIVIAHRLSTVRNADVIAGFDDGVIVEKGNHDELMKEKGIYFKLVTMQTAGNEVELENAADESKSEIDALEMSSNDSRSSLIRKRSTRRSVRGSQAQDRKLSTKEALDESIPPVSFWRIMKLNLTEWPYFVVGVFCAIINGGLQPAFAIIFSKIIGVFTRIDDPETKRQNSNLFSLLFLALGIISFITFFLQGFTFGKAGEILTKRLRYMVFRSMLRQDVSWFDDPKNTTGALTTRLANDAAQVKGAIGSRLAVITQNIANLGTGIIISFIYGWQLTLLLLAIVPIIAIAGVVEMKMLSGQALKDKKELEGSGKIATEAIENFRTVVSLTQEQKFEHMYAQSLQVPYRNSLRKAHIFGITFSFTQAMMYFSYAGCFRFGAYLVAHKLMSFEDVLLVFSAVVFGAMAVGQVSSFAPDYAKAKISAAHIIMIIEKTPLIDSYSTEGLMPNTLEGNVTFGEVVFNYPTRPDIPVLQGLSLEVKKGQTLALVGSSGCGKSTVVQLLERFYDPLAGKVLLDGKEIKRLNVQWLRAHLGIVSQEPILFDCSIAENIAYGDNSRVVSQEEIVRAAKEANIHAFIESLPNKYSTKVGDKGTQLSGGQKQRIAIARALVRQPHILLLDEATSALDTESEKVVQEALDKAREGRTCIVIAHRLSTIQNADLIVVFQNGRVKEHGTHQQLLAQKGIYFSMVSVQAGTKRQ
Description: KG1 cell line was maintained in Iscove's modified Dulbecco medium with 20% fetal calf serum (FCS) and 2 mM L-glutamine, 100 units/ml penicillin and 100 μg/ml streptomycin (GIBCO Laboratories, Grand Island, N.Y.).
A functional assay was used to detect changes in P-glycoprotein activity in human PBL treated with different agents that induce lymphoid differentiation or activation, based on flow cytometric analysis of cellular accumulation of Rh123, which is a P-glycoprotein-transported fluorescent mitochondrial dye. In this assay, cells expressing little or no P-glycoprotein stain brightly with Rh123, whereas cells with higher levels of P-glycoprotein activity appear Rh123-dull. […] Since the best-known cellular effect of TPA is the stimulation of PKC, it was also tested whether DOG, a cell-permeable diacylglycerol and a physiological stimulant of PKC, would have an effect on Rh123 accumulation in PBL.

[6] = system: P-glycoprotein; test: UIC2 antibody staining of P-glycoprotein on the cell surface; format: cell-based; conditions: human PBL
Description: as §3
To determine if the observed effect of PKC stimulants on P-glycoprotein activity could be due to an increase in P-glycoprotein expression, untreated and TPA-treated PBL were stained by indirect immunofluorescence labeling with a monoclonal antibody UIC2 that recognized an extracellular epitope of P-glycoprotein encoded by the human MDR1 gene. […]

[7] = system: MDR1; test: cDNA-PCR / flow cytometric analysis of MDR1 induction by PKC agonists; format: cell-based, human
Description: as §2, §3, §4, §1

[8] = system: MDR1; design: key to the marks not given beside the values
[9] = system: hormone-refractory prostate cancer; conditions: continuous infusion, peak of 300 μg/ml at end of 14 days; cited from earlier work

CCCCCCCCCCCCC/C=C/[C@H](O)[C@@H](N)CO (relative stereo) [D,L-threo-sphingosine]
inhibition of Ara-C induced MDR1 expression [1]: little or no capacity to inhibit Ara-C induced MDR1 expression; also recorded: ineffective in inhibiting Ara-C induced MDR1 expression | inhibition of Ara-C induced MDR1 expression ([1]; H9 cells, 25 μM Ara-C 10 h): - | cellular toxicity [2]: higher concentrations induced cellular toxicity

CC1CN(S(=O)(=O)c2cccc3cnccc23)CCN1 (stereo not drawn) [IsoH7]
inhibition of drug-induced MDR1 expression ([1]; IsoH7): No significant inhibition | effect on protein kinases relative to H7 [3]: 10 fold

CCCCCCCCCCCCCC(=O)O[C@@H]1[C@@H](C)[C@@]2(O)[C@@H](C=C(CO)C[C@]3(O)C(=O)C(C)=C[C@@H]23)[C@@H]2C(C)(C)[C@]12OC(C)=O [TPA, 12-o-tetradecanoylphorbol-13-acetate]
MDR1 expression, TPA-treated [4]: - | MDR1 expression, TPA-treated ([4]; 0.001 ug/mL): ++ | MDR1 expression, TPA-treated ([4]; 0.01 ug/mL): ++ | MDR1 expression, TPA-treated ([4]; 0.1 ug/mL): +++ | MDR1 expression, TPA-treated ([4]; EJ (bladder carcinoma), untreated +, assay F): ++ | MDR1 expression, TPA-treated ([4]; HT 1080 (fibrosarcoma), untreated -, assays F, R): - | MDR1 expression, TPA-treated ([4]; MCF-7 (breast carcinoma), untreated -, assay R): + | MDR1 expression, TPA-treated ([4]; Molt-4 (T-cell leukemia), untreated -, assay F): - | MDR1 expression, TPA-treated ([4]; THP-1, untreated -, assay F): - | effect on P-glycoprotein activity (Rh123 accumulation) [5]: significant increase in the number of Rh123-dull cells | P-glycoprotein on the cell surface [6]: markedly increased the levels of P-glycoprotein on the cell surface | increase of MDR1 expression ([7]; EJ bladder carcinoma cells): increase of MDR1 expression | induction of MDR1 mRNA and P-glycoprotein ([7]; H9 cells): clear-cut induction of MDR1 mRNA and P-glycoprotein | time after addition at which MDR1 mRNA became detectable ([7]; H9 cells, TPA): 2 h | time until which MDR1 mRNA continued to increase ([7]; H9 cells, TPA): ≥ 5 h | MDR1 expression induced by TPA alone ([7]; H-9 cells, 10 ng/ml overnight): efficiently induced readily detectable MDR1 expression | induction of MDR1 mRNA and P-glycoprotein ([7]; K562 cells): clear-cut induction of MDR1 mRNA and P-glycoprotein | increase of MDR1 expression ([7]; MCF-7 breast carcinoma cells): increase of MDR1 expression | MDR1 mRNA levels ([7]; human PBL, PCR): corresponding increase in MDR1 mRNA levels | MDR1 expression, TPA-treated [8]: ++ | MDR1 expression, TPA-treated ([8]; mouse FL4 (thymoma), untreated ++, assay F): +++

Cc1ccc(C(=O)Nc2ccc(S(=O)(=O)O)c3cc(S(=O)(=O)O)cc(S(=O)(=O)O)c23)cc1NC(=O)c1cccc(NC(=O)Nc2cccc(C(=O)Nc3cc(C(=O)Nc4ccc(S(=O)(=O)O)c5cc(S(=O)(=O)O)cc(S(=O)(=O)O)c45)ccc3C)c2)c1 [suramin]
activity in hormone-refractory prostate cancer [9]: shown activity in hormone-refractory prostate cancer
